The results in this text go back to patent publication US9796753B2, “N-substituted indenoisoquinolines and syntheses thereof” (Purdue Research Foundation, priority 2005, dated 2017).

Molecules are shown by their SMILES. Read-outs that look alike come from different tables or passages of the source.

Common to all, as to assay type: cell-based
One data set concerns breast MDA-MB-435. The data set is described as follows: COMPARE screening (NCI human cancer cell line screen), cytotoxicity GI50.
Data set [1] has as its system all human cancer cell lines successfully tested. Kind of data set: NCI screen mean graph midpoint (MGM) for growth inhibition. The essentials:
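NCI60 panel cells exposed to compound at 100, 10, 1, 0.1 and 0.01 μM for 48 h, then sulforhodamine B staining. Percentage growth versus control plotted against log concentration; MGM is the midpoint across all lines tested.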

A further data set concerns CNS SF-539. The data set is described as follows: COMPARE screening (NCI human cancer cell line screen), cytotoxicity GI50. The essentials:
(§1)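 Read-out is sulforhodamine B optical density, expressed as a ratio to untreated control and plotted as percentage growth against log10 compound concentration. Exposure lasted 48 h at five concentrations from 100 to 0.01 μM in the NCI60 screen.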

Another data set deals with lung HOP-62. Described as above. In short, it runs like this: as §1
The test system of the next data set is melanoma UACC-62. Described as above. The essentials:
as §1

The next data set concerns ovarian OVCAR-3. The data set is described as above. In short, it runs like this:
as §1

The next data set relates to prostate DU-145. Described as above. In short, it runs like this:
as §1

In another data set the test system is renal SN12C. The description is as above. In short, it runs like this:
as §1

The subject of the next data set is colon HCT-116. The data set is described as above. The essentials: as §1
Setting [2] is: breast MDA-MB-435, concentration corresponding to 50% growth inhibition, read-out: cytotoxicity (GI50 in μM) breast MDA-MB-435.
Where [3] appears, read: all human cancer cell lines successfully tested.
[4] abbreviates: CNS SF-539, concentration corresponding to 50% growth inhibition, read-out: cytotoxicity (GI50 in μM) CNS SF-539.
The mark [5] stands for this setting: lung HOP-62, concentration corresponding to 50% growth inhibition, read-out: cytotoxicity (GI50 in μM) lung HOP-62.
Setting [6] is: melanoma UACC-62, concentration corresponding to 50% growth inhibition, read-out: cytotoxicity (GI50 in μM) melanoma UACC-62.
Setting [7] is: ovarian OVCAR-3, concentration corresponding to 50% growth inhibition, read-out: cytotoxicity (GI50 in μM) ovarian OVCAR-3.
The mark [8] stands for this setting: prostate DU-145, concentration corresponding to 50% growth inhibition, read-out: cytotoxicity (GI50 in μM) prostate DU-145.
The mark [9] stands for this setting: renal SN12C, concentration corresponding to 50% growth inhibition, read-out: cytotoxicity (GI50 in μM) renal SN12C.
Setting [10] is: colon HCT-116, concentration corresponding to 50% growth inhibition, read-out: cytotoxicity (GI50 in μM) colon HCT-116.

Method for breast MDA-MB-435: COMPARE screening. The compounds described herein were examined for antiproliferative activity against the human cancer cell lines in the National Cancer Institute screen (COMPARE screening), in which the activity of each compound was evaluated with approximately 55 different cancer cell lines of diverse tumor origins. […] Therefore, the MGM value represents an overall assessment of toxicity of the compound across numerous cell lines.

By GI50 is commonly meant the concentration giving 50% growth inhibition. Take `CC(C)(C)OC(=O)N(CCCN(CCn1c2c(c3ccccc3c1=O)C(=O)c1ccccc1-2)C(=O)OC(C)(C)C)CCn1c2c(c3ccccc3c1=O)C(=O)c1ccccc1-2` [Compound 13a, Bis-1,3-{(5,6-dihydro-5,11-diketo-11H-indeno[1,2-c]isoquinoline)-(6-ethyl-tert-BOCamino)}propane]: the GI50 in the data set on breast MDA-MB-435 (setting [2]) is over 50.1 µM; with CNS SF-539 (setting [4]), over 50.1 µM; with lung HOP-62 (setting [5]), 22.4 µM; in the data set with melanoma UACC-62 (setting [6]) it was over 50.1 µM; with ovarian OVCAR-3 (setting [7]), 21.4 µM; in the data set on prostate DU-145 (setting [8]), over 50.1 µM. In addition, the results for the GI50 in the data set on renal SN12C (setting [9]) and in the data set on colon HCT-116 (setting [10]) were over 50.1 µM and 22.9 µM, respectively. This compound also had an MGM (mean GI50 across cell lines) in data set [1] (setting [3]) of 33.9 µM.

In the case of `CC(C)(C)OC(=O)N(CCCn1c2c(c3ccccc3c1=O)C(=O)c1ccccc1-2)CCN(CCCn1c2c(c3ccccc3c1=O)C(=O)c1ccccc1-2)C(=O)OC(C)(C)C` [Compound 13b, Bis-1,2-{(5,6-dihydro-5,11-diketo-11H-indeno[1,2-c]isoquinoline)-(6-propyl-tert-BOCamino)}ethane], the GI50 in the data set with breast MDA-MB-435 (setting [2]) is over 50.1 µM; in the data set with CNS SF-539 (setting [4]) it was over 50.1 µM; in the data set with lung HOP-62 (setting [5]) it was 20 µM; in the data set with melanoma UACC-62 (setting [6]), 45.7 µM; in the data set with ovarian OVCAR-3 (setting [7]), 13.2 µM; with prostate DU-145 (setting [8]), over 50.1 µM. In addition, the GI50 with renal SN12C (setting [9]) is 39.8 µM; in the data set with colon HCT-116 (setting [10]) it was 14.1 µM. This compound returned an MGM (mean GI50 across cell lines) in data set [1] (setting [3]) of 28.2 µM.

On to `CC(C)(C)OC(=O)N(CCCCN(CCCn1c2c(c3ccccc3c1=O)C(=O)c1ccccc1-2)C(=O)OC(C)(C)C)CCCn1c2c(c3ccccc3c1=O)C(=O)c1ccccc1-2` [Compound 13d, Bis-1,4-{(5,6-dihydro-5,11-diketo-11H-indeno[1,2-c]isoquinoline)-(6-propyl-tert-BOCamino)}butane], for which the GI50 with breast MDA-MB-435 (setting [2]) was found to be 69.2 µM; in the data set with CNS SF-539 (setting [4]), 8.13 µM; with lung HOP-62 (setting [5]), 11 µM; with melanoma UACC-62 (setting [6]), 93.3 µM; with ovarian OVCAR-3 (setting [7]) it was 69.2 µM; in the data set with prostate DU-145 (setting [8]) it was 47.9 µM. Further, the GI50 with renal SN12C (setting [9]) is 36.3 µM; with colon HCT-116 (setting [10]), 1.91 µM. In data set [1] (setting [3]), this compound had an MGM (mean GI50 across cell lines) of 35.5 µM.

On to `O=C(O)C(F)(F)F.O=C1c2ccccc2-c2c1c1ccccc1c(=O)n2CCCNCCn1c2c(c3ccccc3c1=O)C(=O)c1ccccc1-2` [Compound 14a, Bis{(5,6-dihydro-5,11-diketo-11H-indeno[1,2-c]isoquinoline)}-(6-ethyl,6′-propyl)ammonium Trifluoroacetate], for which the GI50 in the data set with breast MDA-MB-435 was 2.24 µM; with CNS SF-539, 14.5 µM; with lung HOP-62, 0.977 µM; in the data set on melanoma UACC-62, 5.01 µM; in the data set on ovarian OVCAR-3, 8.91 µM; with prostate DU-145, 1.91 µM. Also, the figures for the GI50 with renal SN12C and with colon HCT-116 were 11 µM and 1.05 µM, respectively. Also, the MGM (mean GI50 across cell lines) in [1] (setting [3]) turned out to be 5.25 µM.

For `O=C(O)C(F)(F)F.O=C(O)C(F)(F)F.O=C1c2ccccc2-c2c1c1ccccc1c(=O)n2CCCN1CCN(CCCn2c3c(c4ccccc4c2=O)C(=O)c2ccccc2-3)CC1` [Compound 14f, Bis-1,4-{(5,6-dihydro-5,11-diketo-11H-indeno[1,2-c]isoquinoline)-6-propyl}piperazine Bis(trifluoroacetate)], the GI50 in the data set on breast MDA-MB-435 was over 100 µM; in the data set with CNS SF-539, over 100 µM; in the data set with lung HOP-62 it was 12.9 µM; in the data set on melanoma UACC-62 it was over 100 µM; in the data set with ovarian OVCAR-3, over 100 µM; in the data set on prostate DU-145, 24 µM. Further, the GI50 in the data set on renal SN12C turned out to be 15.5 µM; with colon HCT-116 it was 35.5 µM. The “MGM (mean graph midpoint for growth inhibition)” value in data set [1] (setting [3]) turned out to be 44.8 ± 2.05 µM.

Regarding `COc1cc2c3c(n(CCNCCCNCCn4c5c(c6cc(OC)c(OC)cc6c4=O)C(=O)c4ccccc4-5)c(=O)c2cc1OC)-c1ccccc1C3=O.O=C(O)C(F)(F)F.O=C(O)C(F)(F)F` [Compound 14k, Bis-1,3-{(5,6-dihydro-5,11-diketo-2,3-dimethoxy-11H-indeno[1,2-c]isoquinoline)-6-ethylamino}propane Bis{trifluoroacetate)], the GI50 is 0.813 µM in the data set on breast MDA-MB-435 (setting [2]); 0.17 µM with CNS SF-539 (setting [4]); 0.068 µM in the data set with lung HOP-62 (setting [5]); 1.23 µM in the data set on melanoma UACC-62 (setting [6]); 0.269 µM with ovarian OVCAR-3 (setting [7]); 0.209 µM in the data set on prostate DU-145 (setting [8]). Further, the figures for the GI50 in the data set on renal SN12C (setting [9]) and in the data set with colon HCT-116 (setting [10]) were 0.028 µM and 0.045 µM, respectively. Besides, in data set [1] (setting [3]), the MGM (mean GI50 across cell lines) is 0.562 µM.

Consider `COc1cc2c3c(n(CCCNCCCNCCCn4c5c(c6cc(OC)c(OC)cc6c4=O)C(=O)c4ccccc4-5)c(=O)c2cc1OC)-c1ccccc1C3=O.O=C(O)C(F)(F)F.O=C(O)C(F)(F)F` [Compound 14l, Bis-1,3-{(5,6-dihydro-5,11-diketo-2,3-dimethoxy-11H-indeno[1,2-c]isoquinoline)-6-propylamino}propane Bis{trifluoroacetate)], for which the GI50 with breast MDA-MB-435 (setting [2]) is 3.98 µM; in the data set with CNS SF-539 (setting [4]) it was 4.17 µM; in the data set on lung HOP-62 (setting [5]), 1.51 µM; with melanoma UACC-62 (setting [6]), 4.27 µM; with ovarian OVCAR-3 (setting [7]), 9.55 µM; with prostate DU-145 (setting [8]), 19.5 µM. Besides, the GI50 in the data set with renal SN12C (setting [9]) came out at 0.24 µM; in the data set on colon HCT-116 (setting [10]) it was 0.331 µM. Further, the MGM (mean GI50 across cell lines) in [1] (setting [3]) was found to be 6.03 µM.

For `O=C(O)C(F)(F)F.O=C(O)C(F)(F)F.O=C1c2ccccc2-c2c1c1ccc([N+](=O)[O-])cc1c(=O)n2CCNCCCNCCn1c2c(c3ccc([N+](=O)[O-])cc3c1=O)C(=O)c1ccccc1-2` [Compound 14m, Bis-1,3-{(5,6-dihydro-5,11-diketo-3-nitro-11H-indeno[1,2-c]isoquinoline)-6-ethylamino}propane Bis{trifluoroacetate)], the GI50 in the data set on breast MDA-MB-435 (setting [2]) came to 0.437 µM; in the data set on CNS SF-539 (setting [4]), 0.324 µM; with lung HOP-62 (setting [5]), 0.631 µM; with melanoma UACC-62 (setting [6]) it was 0.603 µM; in the data set on ovarian OVCAR-3 (setting [7]), 0.245 µM; in the data set on prostate DU-145 (setting [8]) it was 0.813 µM. Also, the GI50 in the data set with renal SN12C (setting [9]) worked out at 0.123 µM; with colon HCT-116 (setting [10]) it was 0.044 µM. Besides, in data set [1] (setting [3]), the “MGM (mean graph midpoint for growth inhibition)” value was 0.354 ± 0.184 µM.

On to `O=C(O)C(F)(F)F.O=C(O)C(F)(F)F.O=C1c2ccccc2-c2c1c1ccc([N+](=O)[O-])cc1c(=O)n2CCCNCCCNCCCn1c2c(c3ccc([N+](=O)[O-])cc3c1=O)C(=O)c1ccccc1-2` [Compound 14n, Bis-1,3-{(5,6-dihydro-5,1-diketo-3-nitro-11H-indeno[1,2-c]isoquinoline)-6-propylamino}propane Bis{trifluoroacetate)], for which the GI50 with breast MDA-MB-435 (setting [2]) was determined as 3.89 µM; with CNS SF-539 (setting [4]), 1.17 µM; in the data set with lung HOP-62 (setting [5]), 3.02 µM; in the data set on melanoma UACC-62 (setting [6]), 1.78 µM; in the data set on ovarian OVCAR-3 (setting [7]), 2.29 µM; with prostate DU-145 (setting [8]), 0.912 µM. The GI50 worked out at 1.17 µM in the data set on renal SN12C (setting [9]) and 1.45 µM with colon HCT-116 (setting [10]). Moreover, the “MGM (mean graph midpoint for growth inhibition)” value in data set [1] (setting [3]) was 1.50 ± 0.24 µM.

For `O=C1c2ccccc2-c2c1c1ccccc1c(=O)n2CCNCCO` [Compound S-2, oracin, reference compound], the GI50 in the data set with breast MDA-MB-435 is 2.56 µM; in the data set with CNS SF-539, 1.65 µM; in the data set on lung HOP-62, 1.62 µM; in the data set on melanoma UACC-62, 1.42 µM; with ovarian OVCAR-3, 3.85 µM; in the data set on prostate DU-145, 1.28 µM. Moreover, the GI50 with renal SN12C came to 0.95 µM; with colon HCT-116, 1.12 µM. In addition, in data set [1] (Table 1, average GI50 of all cell lines tested (approximately 55), test range 10^−8 to 10^−4 molar), the “MGM (mean graph midpoint for growth inhibition)” value came to 1.90 ± 0.80 µM.

`NCCCn1c2c(c3ccccc3c1=O)C(=O)c1ccccc1-2` [Compound S-3, 5,6-dihyro-6-(3-amino-1-propyl)-5,11-dioxo-11H-indeno[1,2,c]isoquinoline, reference compound]: the GI50 in the data set with breast MDA-MB-435 came to 0.78 µM; in the data set on CNS SF-539, 0.25 µM; with lung HOP-62, 0.2 µM; with melanoma UACC-62, 0.26 µM; in the data set with ovarian OVCAR-3 it was 1.38 µM; in the data set with prostate DU-145, 0.22 µM. The GI50 was 0.16 µM in the data set on renal SN12C and 0.18 µM in the data set with colon HCT-116. Also, the “MGM (mean graph midpoint for growth inhibition)” value in [1] (setting [3]) stood at 0.32 ± 0.23 µM.
